In US6737383B1, “Herbicidal oxadiazolidines” (priority 1999, dated 2004):

Experiments:
rape = experiment: Test B pre/postemergence rape; format: in vivo, Brassica napus; details: for Rape plant response rating (0 to 10 scale): 0 is no effect
Outline: (§1)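 Test chemicals in a non-phytotoxic solvent mixture with surfactant were sprayed preemergence onto planted seeds and postemergence onto plants 2 to 18 cm tall (1- to 4-leaf stage). After twelve to sixteen days in a greenhouse, injury was visually rated against untreated controls from 0 (no effect) to 10 (complete control).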

bamyardgrass = experiment: Test B flood test barnyardgrass; format: in vivo, Echinochloa crus-galli
Outline: (§2)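 Flood test on plants grown to the 2-leaf stage; treated plants kept in greenhouse twelve to sixteen days, then visually rated against controls on a 0 (no effect) to 10 (complete control) scale.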

morningglory = experiment: Test B pre/postemergence morningglory; format: in vivo, Ipomoea hederacea; details: for Morningglory plant response rating (0 to 10 scale): 0 is no effect
Outline: as §1

smallflower flatsedge = experiment: Test B flood test smallflower flatsedge; format: in vivo, Cyperus difformis
Outline: as §2

[1] = Postemergence, Rate 125 g/ha, scale of 0 to 10 where 0 is no effect and 10 is complete control
[2] = Preemergence, Rate 62 g/ha, scale 0 to 10 (0 no effect, 10 complete control)
[3] = Preemergence, Rate 125 g/ha, 10 is complete control
[4] = Preemergence, Rate 250 g/ha, scale 0 to 10, 0 is no effect, 10 is complete control
[5] = Preemergence, Rate 500 g/ha, scale 0 to 10 (0 no effect, 10 complete control)
[6] = Rate 62 g/ha, Postemergence, scale of 0 to 10 where 0 is no effect and 10 is complete control
[7] = Rate 250 g/ha, Postemergence, scale 0 to 10, 0 is no effect, 10 is complete control
[8] = Rate 500 g/ha, Postemergence, scale 0 to 10
[9] = Rate 62 g/ha, headed Pre-emergence (flood test species), scale 0 to 10 (0 no effect, 10 complete control)
[10] = Rate 125 g/ha, Pre-emergence, flood test species, scale 0 to 10 where 0 is no effect and 10 is complete control
[11] = Rate 250 g/ha, headed Pre-emergence (flood test species), scale 0 to 10 (0 no effect, 10 complete control)
[12] = Rate 500 g/ha, headed Pre-emergence (flood test species), scale 0 to 10 (0 no effect, 10 complete control)
[13] = Postemergence, Rate 62 g/ha, scale 0 to 10, 0 is no effect, 10 is complete control
[14] = Postemergence, Rate 250 g/ha, scale 0 to 10, 0 no effect, 10 complete control
[15] = Preemergence, Rate 125 g/ha, scale 0 to 10 (0 no effect, 10 complete control)
[16] = Preemergence, Rate 250 g/ha, scale of 0 to 10 where 0 is no effect and 10 is complete control
[17] = Preemergence, Rate 500 g/ha, scale 0 (no effect) to 10 (complete control)
[18] = Rate 125 g/ha, Postemergence, scale 0 to 10, 0 no effect, 10 complete control
[19] = Rate 500 g/ha, Postemergence, scale 0 to 10, 0 no effect, 10 complete control
[20] = Postemergence (flood test species), Rate 125 g/ha, scale of 0 to 10 where 0 is no effect and 10 is complete control
[21] = Rate 62 g/ha, Postemergence section, flood test species, scale of 0 to 10 where 0 is no effect and 10 is complete control
[22] = Rate 250 g/ha, Postemergence (flood test), scale 0 to 10, 0 is no effect, 10 is complete control

## CC(C)N(C(=O)n1oc(=O)n(C(C)(C)C)c1=O)c1ccccc1 [Compound 129]
rape; [1]
  Rape plant response rating: 0
rape; [2]
  Rape plant response rating: 0
rape; [3]
  Rape plant response rating (0 to 10 scale): 0
rape; [4]
  Rape plant response rating: 0
rape; [5]
  Rape plant response rating: 0
rape; [6]
  Rape plant response rating: 0
rape; [7]
  Plant response rating, Rape: 0
rape; [8]
  Rape plant response rating: 0
bamyardgrass; [9]
  Barnyardgrass plant response rating: 7
bamyardgrass; [10]
  Barnyardgrass plant response rating: 3
bamyardgrass; [11]
  Barnyardgrass plant response rating: 9
bamyardgrass; [12]
  Plant response rating, Barnyardgrass: 9
morningglory; [1]
  Morningglory plant response rating: 4
morningglory; [2]
  Morningglory plant response rating: 0
morningglory; [3]
  Morningglory plant response rating (0 to 10 scale): 0
morningglory; [4]
  Morningglory plant response rating: 0
morningglory; [5]
  Morningglory plant response rating: 0
morningglory; [6]
  Morningglory plant response rating: 4
morningglory; [7]
  Plant response rating, Morningglory: 8
morningglory; [8]
  Morningglory plant response rating: 8
Smallflower flatsedge; [9]
  S. Flatsedge plant response rating: 3
Smallflower flatsedge; [10]
  S. Flatsedge plant response rating: 5
Smallflower flatsedge; [11]
  S. Flatsedge plant response rating: 9
Smallflower flatsedge; [12]
  Plant response rating, S. Flatsedge: 9

## Cc1ccccc1-n1c(=O)on(C(=O)N(Cc2ccccc2)C(C)C)c1=O [Compound 72]
rape; [13]
  Rape plant response rating: 0
rape; [14]
  Rape plant response rating: 0
rape; [2]
  Rape plant response rating: 0
rape; [15]
  Plant response rating, Rape: 0
rape; [16]
  Plant response rating, Rape: 0
rape; [17]
  Rape plant response rating: 0
rape; [18]
  Rape plant response rating: 0
rape; [19]
  Rape plant response rating: 0
bamyardgrass; [9]
  Barnyardgrass plant response rating: 0
bamyardgrass; [10]
  Barnyardgrass plant response rating: 0
bamyardgrass; [11]
  Barnyardgrass plant response rating: 0
bamyardgrass; [12]
  Plant response rating, Barnyardgrass: 0
morningglory; [13]
  Morningglory plant response rating: 0
morningglory; [14]
  Morningglory plant response rating: 0
morningglory; [2]
  Morningglory plant response rating: 0
morningglory; [15]
  Plant response rating, Morningglory: 0
morningglory; [16]
  Plant response rating, Morningglory: 0
morningglory; [17]
  Morningglory plant response rating: 0
morningglory; [18]
  Morningglory plant response rating: 0
morningglory; [19]
  Morningglory plant response rating: 0
Smallflower flatsedge; [9]
  S. Flatsedge plant response rating: 0
Smallflower flatsedge; [10]
  S. Flatsedge plant response rating: 0
Smallflower flatsedge; [11]
  S. Flatsedge plant response rating: 0
Smallflower flatsedge; [12]
  Plant response rating, S. Flatsedge: 0

## CN(C(=O)n1oc(=O)n(Cc2ccccc2)c1=O)c1ccccc1 [Compound 153]
rape; [1]
  Rape plant response rating: 0
rape; [2]
  Rape plant response rating: 0
rape; [3]
  Rape plant response rating (0 to 10 scale): 0
rape; [4]
  Rape plant response rating: 0
rape; [5]
  Rape plant response rating: 0
rape; [6]
  Rape plant response rating: 0
rape; [7]
  Plant response rating, Rape: 0
rape; [8]
  Rape plant response rating: 0
bamyardgrass; [20]
  Barnyardgrass plant response rating: 0
bamyardgrass; [21]
  Barnyardgrass plant response rating: 0
bamyardgrass; [22]
  Plant response rating, Barnyardgrass: 0
bamyardgrass; Rate 500 g/ha, listed under Postemergence (flood test species), scale 0 to 10, 0 no effect, 10 complete control
  Barnyardgrass plant response rating: 0
morningglory; [1]
  Morningglory plant response rating: 0
morningglory; [2]
  Morningglory plant response rating: 0
morningglory; [3]
  Morningglory plant response rating (0 to 10 scale): 0
morningglory; [4]
  Morningglory plant response rating: 0
morningglory; [5]
  Morningglory plant response rating: 0
morningglory; [6]
  Morningglory plant response rating: 0
morningglory; [7]
  Plant response rating, Morningglory: 0
morningglory; [8]
  Morningglory plant response rating: 0
Smallflower flatsedge; [20]
  S. Flatsedge plant response rating: 0
Smallflower flatsedge; [21]
  S. Flatsedge plant response rating: 0
Smallflower flatsedge; [22]
  Plant response rating, S. Flatsedge: 0
Smallflower flatsedge; Rate 500 g/ha, listed under Postemergence (flood test species), scale 0 to 10
  S. Flatsedge plant response rating: 0
